Test results published in US12195466B2, “Polyproline mimetics of proline-derived module-15” (Forschungsverbund Berlin e.V., priority 2018, dated 2025).

Legend:
EnaH-EVH1 domain [1] = biological target: T1, EnaH-EVH1 domain (Homo sapiens (Human), UniProt Q8N8S7); assay: Binding affinity to the EnaH-EVH1 domain by fluorescence titration (FT); details: for Kd / FT ΔG^0 (free energy): EnaH-EVH1 domain
Procedure: (§1) The binding data of the ligands to the domain was determined by means of isothermal titration calorimetry (ITC) or fluorescence titration (FT) and presented in the form of the dissociation constant (Kd) or the free energy (AGO). A stronger binding of the ligand to the domain is expressed by a smaller Kd value or a correspondingly more negative AGO value. The relationship between the two parameters is shown in equation (a): […]

Ena/VASP-EVH1 domain = details: cited from earlier work
EnaH-EVH1 domain [2] = biological target: T1, EnaH-EVH1 domain; assay: Binding affinity to the EnaH-EVH1 domain by isothermal titration calorimetry (ITC); details: standard errors in brackets
Procedure: as §1

Cell permeability = format: in vitro ADME; details: comparison among derivatives 44, 242 and 113
Metabolic stability = format: in vitro ADME; details: comparison among derivatives 44, 242 and 113
VASP = VASP (Homo sapiens (Human), UniProt P50552); details: cited from earlier work
Sequence of VASP (P50552 whole entry, species assumed): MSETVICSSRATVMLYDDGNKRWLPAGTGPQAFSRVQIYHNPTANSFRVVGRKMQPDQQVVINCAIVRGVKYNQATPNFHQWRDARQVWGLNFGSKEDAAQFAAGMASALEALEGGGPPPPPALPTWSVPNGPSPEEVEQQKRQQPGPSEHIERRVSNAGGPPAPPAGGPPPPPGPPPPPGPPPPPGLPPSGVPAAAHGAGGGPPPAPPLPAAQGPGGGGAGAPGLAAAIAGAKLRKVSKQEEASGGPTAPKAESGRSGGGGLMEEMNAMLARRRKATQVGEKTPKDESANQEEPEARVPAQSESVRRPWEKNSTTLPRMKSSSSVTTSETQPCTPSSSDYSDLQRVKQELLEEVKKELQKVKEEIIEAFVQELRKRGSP

[3] = test system: highly metastatic colorectal and breast cancer cells; details: cited from earlier work
[4] = esterification of the free acid 43; cited from earlier work
EVL-EVH1 = EVL-EVH1 (Homo sapiens (Human), UniProt Q9UI08); details: cited from earlier work
Sequence of EVL-EVH1 (Q9UI08 1-112): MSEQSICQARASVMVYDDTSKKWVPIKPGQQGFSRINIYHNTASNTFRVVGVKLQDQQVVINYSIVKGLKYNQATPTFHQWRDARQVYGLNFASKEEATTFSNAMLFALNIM

Ena-EVH1 = Ena-EVH1 (Homo sapiens (Human), UniProt Q8N8S7); details: cited from earlier work
Sequence of Ena-EVH1 (Q8N8S7 1-111): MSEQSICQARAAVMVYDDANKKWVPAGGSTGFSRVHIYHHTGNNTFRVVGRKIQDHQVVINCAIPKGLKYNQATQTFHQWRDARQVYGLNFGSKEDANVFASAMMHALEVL

VASP-EVH1 = VASP-EVH1 (Homo sapiens (Human), UniProt P50552); details: cited from earlier work
Sequence of VASP-EVH1 (P50552 2-113): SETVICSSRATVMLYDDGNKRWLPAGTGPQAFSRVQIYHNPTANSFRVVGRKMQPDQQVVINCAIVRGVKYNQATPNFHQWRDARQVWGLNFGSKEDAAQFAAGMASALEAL

[5] = fluorescence titration, Table 3, read-out: KD

T1 sequence (Q8N8S7 1-111): as the sequence (Q8N8S7 1-111) above

CC[C@@H]1C=C[C@H]2CCN(C(=O)[C@@H]3CC[C@H]4C=C[C@]5(CCCN5C(=O)[C@H](Cc5ccccc5Cl)NC(C)=O)C(=O)N43)[C@@H]2C(=O)N1CC(=O)OC [Ligand 247, Ac-[L-2Cl—F]-[ProM-2]-[R,S,R-Gly-ProM-15]-OMe]
Kd (EnaH-EVH1 domain [1]; [5]): 0.47 µM | FT ΔG^0 (free energy) (EnaH-EVH1 domain [1]; standard errors in brackets): −36.1 (0.1) kJ/mol | Kd (EnaH-EVH1 domain [1]; standard errors in brackets, read-out: FT Kd): 0.47 µM | gain in affinity by a factor (EnaH-EVH1 domain [1]; compared with the ProM-1-based predecessor ligands 44 and 242): 9-10

Ac-SFEFPPPPTEDEL-NH2 [Ligand 40]
binding to the Ena/VASP-EVH1 domain (range in words) (Ena/VASP-EVH1 domain): micromolar range

CC(=O)N[C@@H](Cc1ccccc1Cl)C(=O)N1CCC[C@]12C=C[C@@H]1CC[C@@H](C(=O)N3CC[C@@H]4C=C[C@H]5CC[C@@H](C(N)=O)N5C(=O)[C@H]43)N1C2=O [Ligand 113, Ac-[L-2Cl—F]-[ProM-2]-[ProM-1]-NH2]
Kd (EnaH-EVH1 domain [2]): 7 µM | cell permeabilities (Cell permeability): almost identical | metabolic stabilities (Metabolic stability): almost identical

COC(=O)[C@@H]1CC[C@@H]2C=C[C@H]3CCN(C(=O)[C@@H]4CC[C@H]5C=C[C@]6(CCCN6C(=O)[C@H](Cc6ccccc6Cl)NC(C)=O)C(=O)N54)[C@@H]3C(=O)N21 [Ligand 242, Ac-[L-2Cl—F]-[ProM-2]-[ProM-1]-OMe]
FT ΔG^0 (free energy) (EnaH-EVH1 domain [1]; standard errors in brackets): −30.6 (0.4) kJ/mol | cell permeabilities (Cell permeability): almost identical | metabolic stabilities (Metabolic stability): almost identical

COC(=O)CN1C(=O)[C@@H]2[C@@H](C=C[C@H]1CC(C)C)CCN2C(=O)[C@@H]1CC[C@@H]2C=C[C@H]3CCN(C(=O)[C@H](Cc4ccccc4Cl)NC(C)=O)[C@@H]3C(=O)N21 [Ac-[2Cl-Phe]-[ProM-1]-[ProM-17]-OMe]
Kd (EnaH-EVH1 domain [1]; [5]): 2.2 µM

COC(=O)CN1C(=O)[C@@H]2[C@@H](C=C[C@H]1CC(C)C)CCN2C(=O)[C@@H]1CC[C@H]2C=C[C@]3(CCCN3C(=O)[C@H](Cc3ccccc3Cl)NC(C)=O)C(=O)N21 [Ac-[2Cl-Phe]-[ProM-2]-[ProM-17]-OMe]
Kd (EnaH-EVH1 domain [1]; [5]): 0.54 µM

CCC[C@@H]1C=C[C@H]2CCN(C(=O)[C@@H]3CC[C@H]4C=C[C@]5(CCCN5C(=O)[C@H](Cc5ccccc5Cl)NC(C)=O)C(=O)N43)[C@@H]2C(=O)N1CC(=O)OC [Ac-[2Cl-Phe]-[ProM-2]-[ProM-21]-OMe]
Kd (EnaH-EVH1 domain [1]; [5]): 0.26 µM

CCOC(=O)[C@@H]1CC[C@@H]2C=C[C@H]3CCN(C(=O)[C@@H]4CC[C@H]5C=C[C@]6(CCCN6C(=O)[C@H](Cc6ccccc6Cl)NC(C)=O)C(=O)N54)[C@@H]3C(=O)N21 [Ligand 44, Ac-[L-2Cl—F]-[ProM-2]-[ProM-1]-OEt, reference compound]
FT ΔG^0 (free energy) (EnaH-EVH1 domain [1]; standard errors in brackets): −30.8 (0.2) kJ/mol | cell permeabilities (Cell permeability): almost identical | metabolic stabilities (Metabolic stability): almost identical | delocalization of VASP from focal adhesions and leading edge (VASP): delocalizes the protein VASP from focal adhesions | motility of cancer cells [3]: drastically reduces the motility | cell permeability [4]: cell-permeable

CC[C@@H]1C=C[C@H]2CCN(C(=O)[C@@H]3CC[C@@H]4C=C[C@H]5CCN(C(=O)[C@H](Cc6ccccc6Cl)NC(C)=O)[C@@H]5C(=O)N43)[C@@H]2C(=O)N1CC(=O)OC [Ac-[2Cl-Phe]-[ProM-1]-[ProM-15]-OMe]
Kd (EnaH-EVH1 domain [1]; [5]): 0.9 µM

CCC[C@@H]1C=C[C@H]2CCN(C(=O)[C@@H]3CC[C@@H]4C=C[C@H]5CCN(C(=O)[C@H](Cc6ccccc6Cl)NC(C)=O)[C@@H]5C(=O)N43)[C@@H]2C(=O)N1CC(=O)OC [Ac-[2Cl-Phe]-[ProM-1]-[ProM-21]-OMe]
Kd (EnaH-EVH1 domain [1]; [5]): 2.1 µM

Ac-[L-2CI-F]-[ProM-2]-[ProM-1]-OH [Ligand 43]
increased binding affinity compared to the natural peptide 42 (EVL-EVH1): 180 fold | increased binding affinity compared to the natural peptide 42 (Ena-EVH1): 180 fold | increased binding affinity compared to the natural peptide 42 (VASP-EVH1): 280 fold

CCOC(=O)[C@@H]1C[C@@H](C)[C@@H]2C=C[C@H]3CCN(C(=O)[C@@H]4CC[C@H]5C=C[C@]6(CCCN6C(=O)[C@H](Cc6ccccc6Cl)NC(C)=O)C(=O)N54)[C@@H]3C(=O)N12 [Ligand 251, Ac-[L-2Cl—F]-[ProM-2]-[ProM-9]-OEt, reference compound]
FT ΔG^0 (free energy) (EnaH-EVH1 domain [1]; standard errors in brackets): −36.6 (0.3) kJ/mol
